# Data published in patent US7008905B2, “Method of combating undesired plant growth on cereals” (BASF Aktiengesellschaft, priority 2000, dated 2006).
# What was measured:
# Assay type in all cases: in vivo
# [1] = tested on: Lamium purpureum; experiment: Pre-emergence test, weed control; settings: 3 weeks after treatment, rating 0-100 (100=death), Table 1
# Summary of the method: (§1)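 Using a 900 l/ha spray volume, test formulations are applied to newly sown soil at five rates from 15 to 240 g/ha. Each formulation is an acetone solution containing 0.4% w/w wetting agent, diluted with water; visual 0–100 ratings follow at three weeks.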
# [2] = tested on: Polygonum convolvulus; experiment: Pre-emergence test, weed control; settings: 3 weeks after treatment, rating 0-100 (100=death), Table 1
# Summary of the method: as §1
# [3] = tested on: Apera spica-venti; experiment: Pre-emergence test, weed control; settings: 3 weeks after treatment, rating 0-100 (100=death), Table 1
# Summary of the method: as §1
# [4] = tested on: Matricaria inodora; experiment: Pre-emergence test, weed control; settings: 3 weeks after treatment, rating 0-100 (100=death), Table 1
# Summary of the method: as §1
# [5] = tested on: Poa annua; experiment: Pre-emergence test, weed control; settings: 3 weeks after treatment, rating 0-100 (100=death), Table 1
# Summary of the method: as §1
# [6] = tested on: Veronica persica; experiment: Pre-emergence test, weed control; settings: 3 weeks after treatment, rating 0-100 (100=death), Table 1
# Summary of the method: as §1
# [7] = tested on: Triticum aestivum variety “Monopol”; experiment: Post-emergence test, selectivity; settings: 2–4 weeks after treatment, rating 0-100 (100=death), Table 6
# Protocol: (§2) These acetone solutions are diluted with water and the resulting formulations applied at dosage levels equivalent of about 0.030 to 0.240 kg per hectare of test compound per pot. After spraying the plants are placed an greenhouse benches and are cared for in the usual manner, commensurate with conventional greenhouse practices. From 2 to 4 weeks after treatment, the seedling plants are examined and rated according to the rating system provided above. A rating 0 indicates growth as untreated control, a rating 100 indicates death.
# [8] = tested on: Triticum aestivum variety “Kanzler”; experiment: Post-emergence test, selectivity; settings: 2–4 weeks after treatment, rating 0-100 (100=death), Table 6
# Protocol: as §2
# [9] = tested on: VIOAR; experiment: Post-emergence test, weed control; settings: 2–4 weeks after treatment, rating 0-100 (100=death), Table 5
# Protocol: as §2
# [10] = tested on: Stellaria media; experiment: Post-emergence test, weed control; settings: 2–4 weeks after treatment, rating 0-100 (100=death), Table 5
# Protocol: as §2
# [11] = tested on: Lamium purpureum; experiment: Post-emergence test, weed control; settings: 2–4 weeks after treatment, rating 0-100 (100=death), Table 5
# Protocol: as §2
# [12] = tested on: Polygonum convolvulus; experiment: Post-emergence test, weed control; settings: 2–4 weeks after treatment, rating 0-100 (100=death), Table 5
# Protocol: as §2
# [13] = tested on: Matricaria inodora; experiment: Post-emergence test, weed control; settings: 2–4 weeks after treatment, rating 0-100 (100=death), Table 5
# Protocol: as §2
# [14] = tested on: Setaria viridis; experiment: Post-emergence test, weed control; settings: 2–4 weeks after treatment, rating 0-100 (100=death), Table 5
# Protocol: as §2
# [15] = tested on: Galium aparine; experiment: Post-emergence test, weed control; settings: 2–4 weeks after treatment, rating 0-100 (100=death), Table 5
# Protocol: as §2
# [16] = tested on: Triticum aestivum variety “Monopol”; experiment: Pre-emergence test, selectivity; settings: 3 weeks after treatment, rating 0-100 (100=death), Table 2
# Summary of the method: as §1
# [17] = tested on: HORVW; experiment: Pre-emergence test, selectivity; settings: 3 weeks after treatment, rating 0-100 (100=death), Table 2
# Summary of the method: as §1
# [18] = tested on: Triticum aestivum variety “Kanzler”; experiment: Pre-emergence test, selectivity; settings: 3 weeks after treatment, rating 0-100 (100=death), Table 2
# Summary of the method: as §1
# [19] = tested on: Hordeum vulgare variety “Mammut”; experiment: Pre-emergence test, selectivity; settings: 3 weeks after treatment, rating 0-100 (100=death), Table 2
# Summary of the method: as §1
structure (smiles),measurement,setting,value
CCc1cc(Oc2cccc(C(F)(F)F)c2)nc(-c2ccc(C(F)(F)F)cc2)n1 [REF-3],LAMPU weed control rating,[1]; 0.015 kg/ha,100
same,LAMPU weed control rating,[1]; 0.030 kg/ha,100
same,LAMPU weed control rating,[1]; 0.060 kg/ha,100
same,LAMPU weed control rating,[1]; 0.120 kg/ha,100
same,LAMPU weed control rating,[1]; 0.240 kg/ha,100
same,POLCO weed control rating,[2]; 0.015 kg/ha,25
same,POLCO weed control rating,[2]; 0.030 kg/ha,70
same,POLCO weed control rating,[2]; 0.060 kg/ha,80
same,POLCO weed control rating,[2]; 0.120 kg/ha,100
same,POLCO weed control rating,[2]; 0.240 kg/ha,100
same,APESV weed control rating,[3]; 0.015 kg/ha,100
same,APESV weed control rating,[3]; 0.030 kg/ha,100
same,APESV weed control rating,[3]; 0.060 kg/ha,100
same,APESV weed control rating,[3]; 0.120 kg/ha,100
same,APESV weed control rating,[3]; 0.240 kg/ha,100
same,MATIN weed control rating,[4]; 0.015 kg/ha,99
same,MATIN weed control rating,[4]; 0.030 kg/ha,99
same,MATIN weed control rating,[4]; 0.060 kg/ha,99
same,MATIN weed control rating,[4]; 0.120 kg/ha,100
same,MATIN weed control rating,[4]; 0.240 kg/ha,100
same,POAAN weed control rating,[5]; 0.015 kg/ha,100
same,POAAN weed control rating,[5]; 0.030 kg/ha,100
same,POAAN weed control rating,[5]; 0.060 kg/ha,100
same,POAAN weed control rating,[5]; 0.120 kg/ha,100
same,POAAN weed control rating,[5]; 0.240 kg/ha,100
same,VERPE weed control rating,[6]; 0.015 kg/ha,100
same,VERPE weed control rating,[6]; 0.030 kg/ha,100
same,VERPE weed control rating,[6]; 0.060 kg/ha,100
same,VERPE weed control rating,[6]; 0.120 kg/ha,100
same,VERPE weed control rating,[6]; 0.240 kg/ha,100
same,TRZAWM rating (Selectivity),[7]; 0.03 kg/ha,10
same,TRZAWM rating (Selectivity),[7]; 0.06 kg/ha,15
same,TRZAWM rating (Selectivity),[7]; 0.12 kg/ha,22
same,TRZAWM rating (Selectivity),[7]; 0.24 kg/ha,30
same,TRZAWK rating (Selectivity),[8]; 0.03 kg/ha,12
same,TRZAWK rating (Selectivity),[8]; 0.06 kg/ha,15
same,TRZAWK rating (Selectivity),[8]; 0.12 kg/ha,25
same,TRZAWK rating (Selectivity),[8]; 0.24 kg/ha,35
same,VIOAR weed control rating,[9]; 0.030 kg/ha,90
same,VIOAR weed control rating,[9]; 0.060 kg/ha,90
same,VIOAR weed control rating,[9]; 0.120 kg/ha,90
same,VIOAR weed control rating,[9]; 0.240 kg/ha,93
same,STEME weed control rating,[10]; 0.030 kg/ha,65
same,STEME weed control rating,[10]; 0.060 kg/ha,85
same,STEME weed control rating,[10]; 0.120 kg/ha,85
same,STEME weed control rating,[10]; 0.240 kg/ha,92
same,LAMPU weed control rating,[11]; 0.030 kg/ha,93
same,LAMPU weed control rating,[11]; 0.060 kg/ha,93
same,LAMPU weed control rating,[11]; 0.120 kg/ha,93
same,LAMPU weed control rating,[11]; 0.240 kg/ha,93
same,POLCO weed control rating,[12]; 0.060 kg/ha,35
same,POLCO weed control rating,[12]; 0.120 kg/ha,55
same,POLCO weed control rating,[12]; 0.240 kg/ha,80
same,MATIN weed control rating,[13]; 0.030 kg/ha,65
same,MATIN weed control rating,[13]; 0.060 kg/ha,80
same,MATIN weed control rating,[13]; 0.120 kg/ha,85
same,MATIN weed control rating,[13]; 0.240 kg/ha,85
same,SETVI weed control rating,[14]; 0.030 kg/ha,95
same,SETVI weed control rating,[14]; 0.060 kg/ha,98
same,SETVI weed control rating,[14]; 0.120 kg/ha,99
same,SETVI weed control rating,[14]; 0.240 kg/ha,100
same,GALAP weed control rating,[15]; 0.030 kg/ha,90
same,GALAP weed control rating,[15]; 0.060 kg/ha,90
same,GALAP weed control rating,[15]; 0.120 kg/ha,93
same,GALAP weed control rating,[15]; 0.240 kg/ha,93
same,TRZAWM rating (Selectivity),[16]; 0.015 kg/ha,3
same,TRZAWM rating (Selectivity),[16]; 0.030 kg/ha,8
same,TRZAWM rating (Selectivity),[16]; 0.060 kg/ha,10
same,TRZAWM rating (Selectivity),[16]; 0.120 kg/ha,35
same,TRZAWM rating (Selectivity),[16]; 0.240 kg/ha,45
same,HORVW rating (Selectivity),[17]; 0.015 kg/ha,15
same,HORVW rating (Selectivity),[17]; 0.030 kg/ha,45
same,HORVW rating (Selectivity),[17]; 0.060 kg/ha,45
same,HORVW rating (Selectivity),[17]; 0.120 kg/ha,60
same,HORVW rating (Selectivity),[17]; 0.240 kg/ha,60
same,TRZAWK rating (Selectivity),[18]; 0.015 kg/ha,5
same,TRZAWK rating (Selectivity),[18]; 0.030 kg/ha,8
same,TRZAWK rating (Selectivity),[18]; 0.060 kg/ha,8
same,TRZAWK rating (Selectivity),[18]; 0.120 kg/ha,25
same,TRZAWK rating (Selectivity),[18]; 0.240 kg/ha,40
same,HORVWM rating (Selectivity),[19]; 0.015 kg/ha,20
same,HORVWM rating (Selectivity),[19]; 0.030 kg/ha,30
same,HORVWM rating (Selectivity),[19]; 0.060 kg/ha,40
same,HORVWM rating (Selectivity),[19]; 0.120 kg/ha,55
same,HORVWM rating (Selectivity),[19]; 0.240 kg/ha,55
